Assay results taken from ChEMBL document CHEMBL1201862, “PubChem BioAssay data set” (2004).
Values joined by “and” are separate entries in the source; they are usually repeats but may differ in a detail not shown here. Identical values can stand only once.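 Protocol summary: plate cells (96-well), add compound at 5 concentrations, incubate 48 h, interpolate endpoints linearly. GI50 marks 50% less growth.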 Active and inactive are the calls of the source. Cut-off read from the data, not from the text of the source: active = GI50 up to about 1.1 µM and inactive = higher.

Assays:
Assay in all cases: inhibition of tumour cell growth, NCI panel, 48 h
786-0 = test system: 786-0
ACHN = test system: ACHN
RXF 393 = test system: RXF 393
KM-20L2 = test system: KM-20L2
SNB-75 = test system: SNB-75
A498 = test system: A498
EKVX = test system: EKVX
SN12C = test system: SN12C
SK-OV-3 = test system: SK-OV-3
SF-295 = test system: SF-295
UO-31 = test system: UO-31
Hs-578T = test system: Hs-578T
HOP-62 = test system: HOP-62
UACC-62 = test system: UACC-62
HCC 2998 = test system: HCC 2998
SK-MEL-28 = test system: SK-MEL-28
MOLT-4 = test system: MOLT-4
SR = test system: SR
SF-539 = test system: SF-539
LOX IMVI = test system: LOX IMVI

Measured: GI50

Cc1ccc(S(=O)(=O)SC/C=C\CSS(=O)(=O)c2ccc(C)cc2)cc1
inactive: 786-0 12.2 µM and 17.9 µM | ACHN 29.6 µM and 25.1 µM | RXF 393 18 µM and 22.8 µM | KM-20L2 23.2 µM and 23.3 µM | SNB-75 19.1 µM and 36.6 µM | A498 57.1 µM and 49.4 µM | EKVX > 92.7 µM and 53.6 µM | SN12C 18.8 µM and 9.71 µM | SK-OV-3 43.5 µM and 55.8 µM | SF-295 19.1 µM and 37.7 µM | UO-31 55.2 µM | Hs-578T 67 µM | HOP-62 49.2 µM and 35.9 µM | UACC-62 17.6 µM and 20.9 µM | HCC 2998 49.1 µM and 55 µM

CCCCCCCCCCCCCCCCCCOCC(COCCOCC[N+]1(CCCCCC(=O)[O-])CCCC1)Oc1ncccn1 (stereo not given)
inactive: SK-MEL-28 6.68 µM | 786-0 7.23 µM | MOLT-4 4.92 µM | ACHN 10 µM | RXF 393 1.4 µM | KM-20L2 1.4 µM | SNB-75 2.61 µM | SR 3.18 µM | A498 5.94 µM | EKVX 14.6 µM | SF-539 4.36 µM | LOX IMVI 2.88 µM | SN12C 4.44 µM | SK-OV-3 3.87 µM | SF-295 4.88 µM | UO-31 10.1 µM | Hs-578T 13.6 µM | HOP-62 1.88 µM | UACC-62 3.35 µM | HCC 2998 2.51 µM

COC12C(COC(=O)NCCO)C3=C(C(=O)C(C)=C(N)C3=O)N1CC1NC12 (stereo not given)
inactive: SK-MEL-28 > 100 µM | 786-0 20.9 µM | MOLT-4 35.2 µM | ACHN 6.59 µM | RXF 393 24 µM | KM-20L2 37.9 µM | SNB-75 17.4 µM | SR 35.2 µM | A498 60.7 µM | EKVX > 264 µM | SF-539 7.83 µM | LOX IMVI 13.8 µM | SN12C 7.94 µM | SK-OV-3 24.4 µM | SF-295 6.62 µM | UO-31 > 100 µM | Hs-578T 198 µM | HOP-62 6.47 µM | UACC-62 8.11 µM | HCC 2998 34.8 µM
